In PubChem BioAssay (NCI):
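Results reflect a 48-hour exposure of cells in 96-well plates to compound at five concentrations. GI50: concentration for 50% inhibition of growth. TGI is the concentration that stops growth completely.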

What was measured:
Test in all cases: NCI anticancer screen, dose series, 48 h
NCI-H226 lung = tested on: NCI-H226 lung
UO-31 renal = tested on: UO-31 renal
NCI-H522 lung = tested on: NCI-H522 lung
UACC-62 melanoma = tested on: UACC-62 melanoma
EKVX NSCLC = tested on: EKVX NSCLC
MALME-3M melanoma = tested on: MALME-3M melanoma
RXF 393 renal = tested on: RXF 393 renal
SNB-19 CNS = tested on: SNB-19 CNS
U251 CNS = tested on: U251 CNS
ACHN renal = tested on: ACHN renal

Question: Which results are given for `COC(=O)C1(C(=O)OC)CC2c3c(c4ccccc4n3C)CC(C1=O)N2Cc1ccccc1` (stereo not given)?
Answer: TGI (NCI-H226 lung): > 100 µM; TGI (UO-31 renal): > 100 µM; TGI (NCI-H522 lung): > 100 µM; TGI (UACC-62 melanoma): > 100 µM; TGI (EKVX NSCLC): > 100 µM; TGI (MALME-3M melanoma): > 100 µM; TGI (RXF 393 renal): > 100 µM; TGI (SNB-19 CNS): > 100 µM; TGI (U251 CNS): > 100 µM; TGI (ACHN renal): > 100 µM

Question: Which GI50 (NCI-H226 lung) does the source give for `COc1cc(/C=C/C(=O)c2ccc(Nc3ncnc4ccccc34)cc2)cc(OC)c1` here?
Answer: The GI50 was 2.45 µM.

Question: And the TGI (NCI-H226 lung)?
Answer: The TGI was 8.91 µM.

Question: And the GI50 (UO-31 renal)?
Answer: Its GI50 is 10.5 µM.

Question: And the TGI (UO-31 renal)?
Answer: Its TGI is 28.6 µM.

Question: And the GI50 (NCI-H522 lung)?
Answer: Its GI50 is 6.69 µM.

Question: And the TGI (NCI-H522 lung)?
Answer: Its TGI is 30.1 µM.

Question: And the GI50 (UACC-62 melanoma)?
Answer: The GI50 was 7.7 µM.

Question: And the TGI (UACC-62 melanoma)?
Answer: The TGI was 27.7 µM.

Question: And the GI50 (EKVX NSCLC)?
Answer: The GI50 was 51.9 µM.

Question: What about the TGI (EKVX NSCLC) of the same compound?
Answer: Its TGI is greater than 100 µM.

Question: And the GI50 (MALME-3M melanoma)?
Answer: The GI50 was 23.8 µM.

Question: What about the TGI (MALME-3M melanoma) of the same compound?
Answer: Its TGI is greater than 100 µM.

Question: What about the GI50 (RXF 393 renal) of the same compound?
Answer: Its GI50 is 2.11 µM.

Question: What about the TGI (RXF 393 renal) of the same compound?
Answer: Its TGI is 9.32 µM.

Question: What about the GI50 (SNB-19 CNS) of the same compound?
Answer: Its GI50 is 9.99 µM.

Question: And the TGI (SNB-19 CNS)?
Answer: Its TGI is 83.2 µM.

Question: And the GI50 (U251 CNS)?
Answer: The GI50 was 2.24 µM.

Question: What about the TGI (U251 CNS) of the same compound?
Answer: The TGI was 6.75 µM.

Question: And the GI50 (ACHN renal)?
Answer: The GI50 was 13.9 µM.

Question: What about the TGI (ACHN renal) of the same compound?
Answer: Its TGI is 63.9 µM.

Question: What does the source list for `C=C1C(=O)O[C@@H]2C(=O)[C@@H](C)[C@@H]3C=CC(=O)[C@@]3(C)[C@@H](OC(=O)/C(C)=C\C)[C@H]12`?
Answer: TGI (NCI-H226 lung): 8.36 µM; TGI (UO-31 renal): 2.85 µM; TGI (NCI-H522 lung): 0.25 µM; TGI (UACC-62 melanoma): 2.95 µM; TGI (EKVX NSCLC): 2.53 µM; TGI (MALME-3M melanoma): 0.948 µM; TGI (RXF 393 renal): 1.47 µM; TGI (SNB-19 CNS): 25.9 µM; TGI (U251 CNS): 6.67 µM; TGI (ACHN renal): 0.609 µM

Question: `O=C(Nc1n[nH]c2nc(-c3ccco3)ccc12)C1CC1` was tested. Which GI50 (NCI-H226 lung) did it give?
Answer: Its GI50 is greater than 25 µM.

Question: What about the TGI (NCI-H226 lung) of the same compound?
Answer: Its TGI is greater than 25 µM.

Question: What about the GI50 (UO-31 renal) of the same compound?
Answer: Its GI50 is greater than 25 µM.

Question: What about the TGI (UO-31 renal) of the same compound?
Answer: Its TGI is greater than 25 µM.

Question: What about the GI50 (NCI-H522 lung) of the same compound?
Answer: The GI50 was greater than 25 µM.

Question: What about the TGI (NCI-H522 lung) of the same compound?
Answer: Its TGI is greater than 25 µM.

Question: And the GI50 (UACC-62 melanoma)?
Answer: Its GI50 is greater than 25 µM.

Question: What about the TGI (UACC-62 melanoma) of the same compound?
Answer: Its TGI is greater than 25 µM.

Question: And the GI50 (EKVX NSCLC)?
Answer: The GI50 was greater than 25 µM.

Question: What about the TGI (EKVX NSCLC) of the same compound?
Answer: The TGI was greater than 25 µM.

Question: What about the GI50 (MALME-3M melanoma) of the same compound?
Answer: The GI50 was greater than 25 µM.

Question: What about the TGI (MALME-3M melanoma) of the same compound?
Answer: Its TGI is greater than 25 µM.

Question: And the GI50 (RXF 393 renal)?
Answer: The GI50 was greater than 25 µM.

Question: What about the TGI (RXF 393 renal) of the same compound?
Answer: The TGI was greater than 25 µM.

Question: And the GI50 (SNB-19 CNS)?
Answer: Its GI50 is greater than 25 µM.

Question: What about the TGI (SNB-19 CNS) of the same compound?
Answer: Its TGI is greater than 25 µM.

Question: What about the GI50 (U251 CNS) of the same compound?
Answer: Its GI50 is greater than 25 µM.

Question: And the TGI (U251 CNS)?
Answer: Its TGI is greater than 25 µM.

Question: And the GI50 (ACHN renal)?
Answer: Its GI50 is greater than 25 µM.

Question: What about the TGI (ACHN renal) of the same compound?
Answer: The TGI was greater than 25 µM.
